Measurements taken from patent US10576078B2 (Council of Scientific & Industrial Research, priority 2017, dated 2020).
pIC50: −log10 of the molar value. Read-outs that look alike come from different tables or passages of the source.

How the values were obtained:
CrkL = test: Immunoblotting of CrkL phosphorylation in K562 cells; format: cell-based, Human; conditions: 30 min, Y207
Procedure: K562 cells were treated as indicated for 30 min and stat5 phosphorylation at Y694 or CrkL phosphorylation at Y207 were assessed by immunoblotting. Total stat5 or β-actin expression was assessed to ensure equal loading. Pio was used as a negative control and IMT was used as a positive control. Data is one representative of 3 independent experiments.
K562 cells were cultured in 6 well plates and treated as indicated in figures or descriptions of FIG. 1E, FIG. 1G and FIG. 2D-E. Cells were then homogenized in lysis buffer containing 50 mM Tris-HCl, pH 7.5, 150 mM NaCl, 1% NP40, 5 mM EDTA, 1 mM DTT, protease and phosphatase inhibitor cocktails (Sigma) and incubated on ice for 30 min followed by 5 cycles of freeze-thaw. Samples were then centrifuged at 14000 rpm at 4° C. for 30 min. Supernatants were then quantified by Bichinchonic acid (Sigma)-based protein estimation. Equal amount of proteins were solubilized in Laemmli buffer, and were resolved by 10%-12% SDS PAGE and transferred onto PVDF membranes (Millipore; Billerica, Mass.). Membranes were blocked in 5% (w/v) non-fat dried milk powder (Sigma) in PBS containing 0.2% Tween 20 (Sigma). […] Immunoreactivity was detected using a chemiluminescent HRP Substrate (Millipore) in a LAS 4010 Chemi-doc Imager (GE Healthcare, Little Chalfont, UK). […]

[1] = test system: CD34+ cells from healthy donors
Procedure: (§1) Determination of CFZ's Effect on Cell Viability and Apoptosis • a. CellTitre-Glo assay: Cell viability (in FIG. 1B, FIG. 4 and FIG. 6A) assays was performed using the ATP-based CellTiter-Glo Luminescent cell viability assay (Promega Madison, Wis.) as per the manufacturer's instruction. Briefly, (1.25×10^5) K562 cells/ml (FIG. 1B and FIG. 4) or CD34+ cells from healthy donors (FIG. 6A) were cultured in 48-well plates and were treated as indicated in the respective figures and figure descriptions (vehicle; V=0.1% DMSO). Cells were then incubated with CellTitre-Glo reagent for 15 min. Luminescence was recorded in a GloMax-96 Microplate luminometer (Promega, Madison, Wis.) with an integration time of 1 s per well. • b. Analysis of apoptosis by Annexin V staining and flow cytometry • K562 (FIG. 1C-D) and primary CP-CML cells (FIG. 1H-I) were cultured in 6 well plates (2×10^5 cells/well) and were treated with indicated concentrations of compounds as described in respective figures and their descriptions. Cells were then harvested and washed, and incubated in binding buffer (Annexin V Binding Buffer, BD Pharmingen) with 0.3% Annexin V-FITC and PI for 15 min at room temperature in dark. Apoptosis was measured by FACSCalibur flow cytometer (Becton Dickenson, San Jose, Calif.). • c. TUNEL assay • Pro-apoptotic potential was analysed using a Fluorometric APO-BrdU™ TUNEL Assay Kit (Invitrogen) according to the manufacturer's protocol (FIG. 1F). Cells were treated with Vehicle (0.1% DMSO) or CFZ (5 μM) for 48 h. Cells were then fixed in formaldehyde (4%) for 25 min at 4° C., permeabilized with 0.2% Triton-X100 and washed with PBS. Cells were then incubated in Terminal Deoxynucleotidyl Transferase (TdT) reaction buffer without TdT enzyme for 7 minutes at room temperature and then in TdT buffer with TdT enzyme at 37° C. in dark. After termination of TdT reaction, cells were stained with 5 μg/ml of PI for 15 min in dark followed by washing and analysed with fluorescence microscopy.

[2] = rat, in vivo, po
Source text: (§2) Sprague-Dawley rats (n=6 per group) were divided into 3 groups. […] Plasma was separated and processed for analysis by LC-MS/MS. For pharmacokinetic and statistical analysis, plasma concentration versus time data were plotted and analyzed by non-compartmental analysis method using WinNonlin (Pharsight, Mountain View, Calif.) software.
as §2, with “For this SD” for “Sprague-Dawley”

[3] = test system: CD34+ cells from imatinib-resistant patients (quiescent LSCs); test: CFSE assay of quiescent LSCs; format: cell-based, Human; conditions: n=3, 96 h
Procedure: Cells were gated depending on CFSE intensity. […] Apoptosis in these cells was determined by annexin V staining.
For assessing apoptosis in quiescent LSCs, purified CD34^+ cells were first stained with carboxyfluorescein succinimidyl ester (CFSE; Invitrogen) for 30 min. Cells were then washed and resuspended in SFM medium with 5 growth factors and were kept at 37° C. overnight. Next day, cells were treated as indicated in SFM medium with growth factors and were maintained further for 4 days with supplementation of the drugs every 48 h (drug concentrations in FIG. 5 and its description). Cells were then harvested, washed, and were labeled with CD34-PE and Annexin-APC antibodies and then gated into non-dividing cells (CD34^+CFSE^bright) and dividing cell (CD34^+CFSE^dim) population based on CFSE fluorescence intensity. […] Number of cells or apoptosis was determined by flowcytometry.

K562 cells = test: K562 cell viability, CellTiter-Glo luminescent assay; format: cell-based, Human; conditions: Homo sapiens, 48 h
Procedure: K562 cells were treated with indicated concentrations of CFZ for 24 h or 48 h, cell viability was then assessed using the CellTiter-Glo luminescent cell viability assay (Promega). Data is mean±SEM of three independent experiments (each in triplicates). IC50 was calculated using Graphpad prism 5 software.
K562 cells were treated as indicated for 48 h and cell viability was determined by CellTiter-Glo luminescent cell viability assay (A) graphical representation of mean±SEM of three independent experiments.
as §1

In the case of `Cc1ccc(NC(=O)c2ccc(CN3CCN(C)CC3)cc2)cc1Nc1nccc(-c2cccnc2)n1` [imatinib, Imatinib], the CrkL phosphorylation (CrkL) was “successfully inhibited”, the “viability of CD34+ hematopoietic progenitor cells from healthy controls” value [1] was “No loss of survival” and the “Tmax in combination group compared to individual groups” value [2] was “no change”. The “number of CFSE-bright (non-dividing) cells” value [3] was “failed to reduce”.

Work on `Cc1nc(Nc2ncc(C(=O)Nc3c(C)cccc3Cl)s2)cc(N2CCN(CCO)CC2)n1` [dasatinib, Dasatinib] yielded a pIC50 (K562 cells; drug alone, FIG. 4A, read-out: IC50, K562 cell viability assay (48 h)) of 6.19 and a pIC50 (K562 cells; in presence of CFZ, read-out: IC50 of dasatinib in presence of CFZ) of 7.91.
